Laboratory results: patent publication US9345742B2, “Aminostatin derivatives for the treatment of arthrosis” (MERCK PATENT GMBH, priority 2011, dated 2016)
pIC50: −log10 of the molar value.

Experiments:
[1] = target: cathepsin D isolated from the human liver (Homo sapiens (Human), UniProt P07339); test: In-vitro fluorescence assay for identification of cathepsin D inhibitors; type: biochemical; conditions: cathepsin D 1.4 nM, pH 5.5; read-out: CatD assay IC50-
In short: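 Human liver cathepsin D (1.4 nM final) preincubated 10 min at room temperature with serially diluted compounds in 100 mM sodium acetate pH 5.5, 1.25% DMSO, 0.25% CHAPS. Reaction started with 5 μM MCA/Dnp-quenched peptide substrate. Fluorescence increase (ex 340/em 450 nm) over 60 min at room temperature compared with compound-free wells.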

[2] = target: recombinant human renin (Homo sapiens (Human), UniProt P00797); test: In-vitro fluorescence assay for identification of renin-inhibitory activity; type: biochemical; conditions: recombinant human renin 10 nM, pH 7.2; read-out: Renin selectivity IC50
In short: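 Recombinant human renin (10 nM) pre-incubated 15 min at RT with serially diluted compound in 50 mM Mops pH 7.2, 1.5% DMSO, 0.1% Igepal, 0.5% BSA; Edans/Dabcyl FRET peptide (5 µM final) added, 60 min at 37 °C; cleavage read as fluorescence increase (ex 340/em 495 nm) against no-compound wells.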

[3] = Stability in bovine synovial fluid; type: in vitro ADME; conditions: 1 μM, 48 h at 37° C.
Method: In order to check the stability of individual compounds, a pool of four different bovine synovial fluids is mixed. To this end, about 1 ml per SF is used. The mixture is prepared directly in a 5 ml glass vessel. The SFs are mixed thoroughly, but carefully. No air bubbles or foam should form. To this end, a vortex unit is used at the lowest speed. The compounds to be tested are tested in an initial concentration (unless required otherwise) of 1 μM. After addition of the substance, the batch is again mixed thoroughly and carefully. For visual monitoring, all SF batches are photographed, and the pictures are filed in the eLabBio file for the corresponding experiment. […] The batches are incubated in the incubator for 48 h at 37° C. and 7.5% CO2.
The sampling is carried out after the pre-agreed times (unless required otherwise, see below). 200 μl of the SF are removed from the mixture per time and transferred directly into a 0.5 ml “low-binding” Eppendorf vessel. “Low-binding” Eppendorf vessels are used in order to minimise interaction of the substances with the plastic of the vessels. 200 μl of acetonitrile have already been introduced into the Eppendorf vessel, so that a 1+1 mixture of the SF forms thereafter. This simplifies the subsequent analysis, but precipitation of protein may occur immediately after addition of the SF. This should be noted on the protocol. The 0 h sample is taken immediately after addition of the substance. This corresponds to the 100% value in the stability calculation. Ideally, the concentration employed should be retrieved here. The samples can be frozen at −20° C. • 0 h • 6 h • 24 h • 48 h
The negative control used is SF without substance. The positive control used is SF with 1 μM of substance. This corresponds to the 0 h value and thus 100% stability.
The concentrations measured (ng/ml) are plotted against the time in a graph (GraphPad Prism®). The percentage stability of the substance is determined here. The 100% value used is the initial value in the SF at time 0 h. The data are stored in eLabBio under the respective experiment number and reported in the MSR database (as percent stability after the corresponding incubation times).

Sequence of recombinant human renin (P00797 67-406): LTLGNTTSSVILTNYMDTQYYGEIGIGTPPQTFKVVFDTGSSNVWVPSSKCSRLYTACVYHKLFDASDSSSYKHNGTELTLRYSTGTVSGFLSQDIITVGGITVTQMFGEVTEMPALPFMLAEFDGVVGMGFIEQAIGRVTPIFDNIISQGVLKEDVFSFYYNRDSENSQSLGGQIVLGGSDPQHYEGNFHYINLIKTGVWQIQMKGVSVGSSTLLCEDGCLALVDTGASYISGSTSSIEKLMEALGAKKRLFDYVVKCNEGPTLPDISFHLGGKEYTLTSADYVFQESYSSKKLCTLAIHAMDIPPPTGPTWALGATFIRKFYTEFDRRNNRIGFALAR
Sequence of cathepsin D isolated from the human liver (P07339 65-161): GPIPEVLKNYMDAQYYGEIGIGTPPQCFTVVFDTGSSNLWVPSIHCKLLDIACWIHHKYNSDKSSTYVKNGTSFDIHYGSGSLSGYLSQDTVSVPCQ
Sequence of cathepsin D isolated from the human liver (P07339 169-412): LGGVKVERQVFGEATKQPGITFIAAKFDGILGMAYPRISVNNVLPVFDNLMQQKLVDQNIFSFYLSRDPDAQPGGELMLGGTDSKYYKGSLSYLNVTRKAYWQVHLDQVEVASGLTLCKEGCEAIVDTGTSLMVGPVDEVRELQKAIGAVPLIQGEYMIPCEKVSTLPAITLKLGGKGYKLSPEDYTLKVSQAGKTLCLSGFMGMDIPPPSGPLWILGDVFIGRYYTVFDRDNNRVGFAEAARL

pIC50 [1]: 8.00
pIC50 [2]: < 4.52
Stability in synovial fluid [3]: stable
Compound: CCC(CC)NC(=O)[C@@H](NC(=O)C[C@H](N)[C@H](Cc1ccccc1)NC(=O)[C@@H](NC(=O)[C@H](CC(C)C)NC(=O)CC(C)C)C(C)C)[C@@H](C)CC [Compound 39, N-[(1S,2S)-1-(1-Ethylpropylcarbamoyl)-2-methylbutyl]-(S)-3-(S)-amino-4-{(S)-3-methyl-2-[(S)-4-methyl-2-(3-methylbutyryl-amino)pentanoylamino]butyrylamino}-5-phenylpentanamide]
